Laboratory results from patent publication US20230381162A1, “TREATMENTS OF ANGIOEDEMA” (KALVISTA PHARMACEUTICALS LIMITED, priority 2020, published 2023).

Columns and labels:
[1] = higher doses; cited from earlier work
[2] = Phase 1 single ascending dose study: plasma concentrations (PK); type: in vivo, human; conditions: oral capsule, fasted, 5 mg to 600 mg
Procedure: (§1) This study was a randomized, double-blind, placebo-controlled single ascending dose (SAD) and crossover studies for food effect and capsule/tablet formulations.
Samples for pharmacokinetic (PK) and PD assessment were taken at repeated intervals over 48 hours.
Plasma samples used for PK assessment were analysed using a validated liquid chromatography tandem mass spectrometry (LC MS/MS) method.

[3] = Phase 1 single ascending dose study: safety and tolerability; type: in vivo, human; conditions: phase I trial, healthy males
Description: as §1

[4] = system: angioedema attacks in adult subjects with hereditary angioedema type I or II; test: Phase 2 study Part 2: on-demand treatment of HAE attacks, efficacy; type: in vivo, human; conditions: 600 mg
Procedure: This was a phase 2, two-part, two-sequence, two-period (2×2) cross-over clinical trial. Subjects with HAE type I or II were recruited through HAE treatment centres in Europe and US.
(§2) In Part 2, the subjects were randomized 1:1 to 2 treatment sequences. This part of the study was conducted away from the clinic or hospital. In Sequence 1 (study arm 1) subjects received a single dose of 600 mg of the compound to treat the first eligible HAE attack. Following resolution of this attack, subjects received a single dose of placebo to treat the second eligible HAE attack.
In Sequence 2 (study arm 2) subjects received a single dose of placebo to treat the first eligible HAE attack. Following resolution of this attack, subjects received a single dose of 600 mg of the compound to treat the second eligible HAE attack.
Laryngeal or facial attacks were not eligible for treatment. HAE attacks must have been treated within the first hour of onset and before reaching severe on the global attack severity scale. Subjects must also have been able to identify the start of a HAE attack. Upon onset of the eligible HAE attack, subjects notified the dedicated study physician or qualified designee with a description of the HAE attack. The dedicated study physician or qualified designee confirmed eligibility of the HAE attack and agreed to study drug being administered. HAE attacks required documentation, on the Subject Diary, of attack location, attack symptoms, time of onset, attack severity, and time of last substantial meal prior to dosing. Subjects took study drug, as instructed, and completed timed assessments of their HAE attack symptoms for a 48 h period as documented below in Table 3. The dedicated study physician or qualified designee contacted the subject within 24 h of the eligible HAE attack to confirm the subject's safety and wellbeing. Subjects were instructed to contact the dedicated study physician or qualified designee in case of any safety concerns. In the case of hypersensitivity, subjects contacted the dedicated study physician or qualified designee or contact the nearest emergency service. The dedicated study physician or qualified designee was available 24 h/day and 7 days/week to receive subject calls.
Time to use of conventional attack treatment was assessed. The subject diary captured the efficacy endpoints including time to use of conventional attack treatment and HAE attack severity.
Overall HAE attack severity was assessed on a 5-point Likert scale (5LS) scored as none, mild, moderate, severe and very severe.
Change in HAE attack severity was assessed using a 7-point transition question (7TQ), scored as Much better/Better/A little better/No change/A little worse/Worse/Much worse.
The type of HAE attack symptoms (abdominal pain, skin pain and skin swelling) was each assessed on a 100 mm visual analogue scale (VAS) anchored at 0 (none) and 100 (very severe).
The primary endpoint, time to use of conventional attack treatment, was analyzed using a generalization of Gehan's test proposed by Feingold and Gillespie (1996) (Crossover trials with censored data. Statistics in Medicine 1996; 15(10): 953-967) to reflect the repeat measures on each subject. Subjects were treated as censored if no worsening occurs within 12 h of study drug.
The proportion of HAE attacks that worsen by one level or more on the 5LS or that require conventional attack treatment within 12 h of study drug was analyzed using Prescott's test (1981) (The comparison of success rates in cross-over trials in the presence of an order effect. Applied Statistics 1981; 30: 9-15) to compare the treatment arms.
A similar approach to that used for the primary endpoint was followed for the analysis of the time between study drug and HAE attack worsening by one level or more on the 5LS or use of conventional attack treatment, whichever comes first within 12 h. […]

[5] = Phase 2 study: safety (adverse events); type: in vivo, human
Procedure: In Part 1, subjects received a single oral dose of 600 mg of the compound to investigate the safety, PK and PD of the compound during the intercritical period between HAE attacks.
as §2
Safety Variables: • AEs, including serious adverse events (SAEs). • Laboratory test results (clinical chemistry, hematology, coagulation, and urinalysis). • Vital signs (SBP, DBP, PR, RR, body temperature). • Physical examination findings. • ECG results. • Pregnancy test (female subjects of child-bearing potential).
AEs were coded using the Medical Dictionary for Regulatory Activities (MedDRA) dictionary (v21.0 or higher) and classified by preferred term and system organ class (SOC). Listings of treatment-emergent adverse events (TEAEs), serious TEAEs, and TEAEs causing premature discontinuation will be provided by sequence group, and further classified by TEAE severity and relationship to study drug.

[6] = Phase 1 multiple dose study in healthy adult subjects: safety, ECG; type: in vivo, human; conditions: 3 x 600 mg every 8, 4 or 2 hours, total 1800 mg
Procedure: This is a phase 1, double-blind, placebo-controlled, multiple-dose, multiple-cohort study to evaluate safety and tolerability of the compound as well as of the ECG effects of the compound formulated as 100 mg Film Coated Tablets in healthy adult male and female subjects.
During the study, oral doses of 600 mg of the compound as Film Coated Tablets (six 100 mg tablets) or 6 matching placebo tablets will be administered once every 8 hours (Cohort 1) every 4 hours (Cohort 2), or every 2 hours (Cohort 3 and 4) to healthy adult male and female subjects up to a total dose of 1800 mg. In Cohorts 1, 2 and 3, 6 subjects will receive the compound as 100 mg Film Coated Tablets and 2 subjects will receive the placebo for a total of 8 subjects per cohort. In Cohort 4, 12 subjects will receive the compound as 100 mg Film Coated Tablets and 6 subjects will receive the placebo for a total of 18 subjects.
A Holter monitor will be attached to each subject in order to continuously record ECGs. The monitor will be attached 1 hour before the first dose and will remain attached until after the final blood sample collection. The electrodes for the Holter monitor will be checked by a member of the clinic staff at appropriate intervals to ensure they are attached.

Human plasma kallikrein = molecular target: T1, Human plasma kallikrein (Homo sapiens, UniProt P03952); test: Plasma kallikrein inhibitory activity in vitro (purified enzyme, fluorogenic substrate); type: biochemical
T1 construct: purchased Protogen
T1 sequence (P03952 391-638 limits assumed): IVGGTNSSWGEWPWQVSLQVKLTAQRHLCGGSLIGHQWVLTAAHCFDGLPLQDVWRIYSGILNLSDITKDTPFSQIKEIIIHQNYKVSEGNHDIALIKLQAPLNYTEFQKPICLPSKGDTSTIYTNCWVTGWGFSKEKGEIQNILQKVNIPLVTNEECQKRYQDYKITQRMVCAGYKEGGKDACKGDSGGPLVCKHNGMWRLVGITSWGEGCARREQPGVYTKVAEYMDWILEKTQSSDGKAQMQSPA
T1 sequence (P03952 20-390 partner limits assumed): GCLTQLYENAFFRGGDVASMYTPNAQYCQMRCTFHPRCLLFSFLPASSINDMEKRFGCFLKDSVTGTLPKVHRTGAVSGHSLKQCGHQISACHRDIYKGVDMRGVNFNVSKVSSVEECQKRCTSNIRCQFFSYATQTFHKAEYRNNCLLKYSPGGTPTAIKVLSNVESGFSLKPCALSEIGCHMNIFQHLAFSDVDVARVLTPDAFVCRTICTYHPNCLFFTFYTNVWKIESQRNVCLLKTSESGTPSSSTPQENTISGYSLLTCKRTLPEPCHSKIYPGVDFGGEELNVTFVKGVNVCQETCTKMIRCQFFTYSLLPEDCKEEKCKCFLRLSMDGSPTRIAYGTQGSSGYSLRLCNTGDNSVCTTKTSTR
Procedure: Human plasma kallikrein (Protogen) was incubated at 25° C. with the fluorogenic substrate H-DPro-Phe-Arg-AFC and various concentrations of the test compound. Residual enzyme activity (initial rate of reaction) was determined by measuring the change in […] at 410 nm and the IC50 value for the test compound was determined.

purified PKa = purified PKa (Homo sapiens, UniProt P03952); test: Rate of formation of the enzyme-inhibitor complex (Kon) with purified PKa; type: biochemical
Chain of purified PKa (P03952 391-638 limits assumed): as the sequence (P03952 391-638 limits assumed) above
Chain of purified PKa (P03952 20-390 partner limits assumed): as the sequence (P03952 20-390 partner limits assumed) above
Procedure: The rate of formation of the enzyme-inhibitor complex (Kon) was determined using purified PKa rapidly mixed with a solution containing fluorogenic substrate and a concentration range of inhibitor. The time-dependent establishment of inhibition was then used to calculate the rate of formation of the enzyme-inhibitor complex for each concentration of inhibitor. The Kon was calculated by plotting the rate of inhibition versus the inhibitor concentration. Data in Table 1 are presented in μM^−1 sec^−1.

[7] = molecular target: PKa in DXS-activated plasma (Homo sapiens, UniProt P03952); test: Catalytic activity of PKa in dextran sulfate-activated plasma (inhibitor added in vitro); type: biochemical; conditions: read-out: IC50 plasma enzyme
Chain of PKa in DXS-activated plasma (P03952 391-638 limits assumed): as the sequence (P03952 391-638 limits assumed) above
Chain of PKa in DXS-activated plasma (P03952 20-390 partner limits assumed): as the sequence (P03952 20-390 partner limits assumed) above
Procedure: Catalytic activity of PKa in dextran sulfate-activated (DXS, Sigma; 10 μg/ml) plasma (1:4 diluted or undiluted, VisuCon-F control plasma, Affinity Biologicals Inc) was determined by the time-dependent hydrolysis of fluorogenic substrate.

[8] = molecular target: T2, plasma kallikrein activity in pre-activated plasma (Homo sapiens, UniProt P03952); test: Inhibition of enzyme activity of pre-activated undiluted plasma (inhibitor added after DXS); type: biochemical; conditions: compound 300, 1000, 3000 nM; C1-INH 3000 nM; added 3.5 minutes post DXS (FIG. 3B)
T2 construct: from tissue
T2 sequence (P03952 391-638 limits assumed): as the sequence (P03952 391-638 limits assumed) above
T2 sequence (P03952 20-390 partner limits assumed): as the sequence (P03952 20-390 partner limits assumed) above
Procedure: The ability of the compound to inhibit the enzyme activity of pre-activated plasma was assessed by addition of the compound after DXS stimulation. Aliquots of plasma (20 μL) were mixed with a 2.5 μL solution containing […] fluorogenic substrate (H-DPro-Phe-Arg-AFC) and a 2.5 μL solution of dextran sulphate (DXS; 100 μg/mL) which acted as an activator of the plasma kallikrein-kinin pathway. Enzyme activity was immediately measured by monitoring the accumulation of fluorescence liberated from the substrate by substrate cleavage over 16 minutes. At 3.5 minutes post DXS addition 5 μl of inhibitors or water control are were added into each well. The compound was tested at concentrations of 300, 1000 and 3000 nM. C1-INH at a concentration of 3000 nM and vehicle controls were also included.

[9] = human, in vivo; cited from earlier work

**Q.** With `N#Cc1cccc([C@@H](NCC2CC2)c2ccc(F)c(NC(=O)c3cc(C(F)(F)F)nn3-c3cccc(CN)c3)c2)c1` [berotralstat] as the molecule, how does the gastrointestinal adverse effects [1] read?
**A.** more gastrointestinal adverse effects

**Q.** Which plasma exposure [2] does the source give for `COCc1nn(Cc2ccc(Cn3ccccc3=O)cc2)cc1C(=O)NCc1nccc(OC)c1F` [compound of Formula A, N-[(3-fluoro-4-methoxypyridin-2-yl)methyl]-3-(methoxymethyl)-1-({4-[(2-oxopyridin-1-yl)methyl]phenyl}methyl)pyrazole-4-carboxamide] here?
**A.** rapid and dose-dependent plasma exposure

**Q.** What about the serious adverse events [3] of the same molecule?
**A.** No serious adverse events

**Q.** And the tolerability signals [3]?
**A.** no tolerability signals

**Q.** What about the “median time for attacks to be rated better or higher (7TQ)” value [4] of the same molecule?
**A.** 5 h

**Q.** And the “median time to onset of symptom relief on PGI-C (7TQ)” value [4]?
**A.** 1.6 h

**Q.** What about the “median time to symptom relief, composite VAS score” value [4] of the same molecule?
**A.** 6 h

**Q.** What about the “attacks rescued (use of rescue medication)” value ([4]; at 12 hours) of the same molecule?
**A.** 15.1%

**Q.** What about the “use of rescue medication” value ([4]; at 24 hours) of the same molecule?
**A.** 20.8%

**Q.** And the “attacks improved to none on PGI-S (5LS)” value ([4]; within 12 hours)?
**A.** 56.6%

**Q.** And the “attacks rated a little better or higher (7TQ)” value ([4]; within 12 hours)?
**A.** 83.0%

**Q.** And the “attacks rated better or higher (7TQ)” value ([4]; within 12 hours)?
**A.** 58.7%

**Q.** And the “attacks that do not worsen” value ([4]; within 12 hours)?
**A.** 79.2%

**Q.** What about the “attacks improved to none on PGI-S (5LS)” value ([4]; within 24 hours) of the same molecule?
**A.** 66.0%

**Q.** What about the “attacks rated a little better or higher (7TQ)” value ([4]; within 24 hours) of the same molecule?
**A.** 84.9%

**Q.** What about the “attacks rated better or higher (7TQ)” value ([4]; within 24 hours) of the same molecule?
**A.** 67.9%

**Q.** And the “attacks that do not worsen (5LS)” value ([4]; within 24 hours)?
**A.** 69.8%

**Q.** What about the “on-treatment drug-related TEAEs, number of events” value ([5]; Part 1, open-label, 600 mg) of the same molecule?
**A.** 8

**Q.** And the “patients with on-treatment drug-related TEAEs” value ([5]; Part 1, open-label, 600 mg)?
**A.** 5 patients

**Q.** What about the “on-treatment drug-related TEAEs, number of events” value ([5]; Part 2, crossover, 600 mg) of the same molecule?
**A.** 3

**Q.** What about the serious adverse events ([5]; phase 2 trial) of the same molecule?
**A.** no serious adverse events

**Q.** And the “withdrawals due to adverse events” value ([5]; phase 2 trial)?
**A.** no patients withdrew due to adverse events

**Q.** And the “discontinuations because of an AE” value [6]?
**A.** no subjects were discontinued because of an AE

**Q.** What about the “effects on the studied ECG parameters” value [6] of the same molecule?
**A.** No clinically relevant effects

**Q.** And the serious adverse events [6]?
**A.** No serious adverse events

**Q.** And the “severity of all reported adverse events” value [6]?
**A.** mild

**Q.** Which results are given for “C1-INH: C1 inhibitor (C1-INH, Sigma Cat #E0518), used as a therapeutic benchmark for HAE [Compound C1-INH]”?
**A.** IC50 (Human plasma kallikrein): 50 nM; Kon (purified PKa): 40000 M⁻¹ s⁻¹; IC50 [7]: 1700 nM; inhibition of enzyme activity on addition after activation of plasma [8]: slower action

**Q.** Which anaphylactic reactions [9] does the source give for Ecallantide here?
**A.** risks of anaphylactic reactions have been reported
